Data: PubChem BioAssay (NCI)
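Method: 48-hour compound exposure of cells in 96-well plates, five concentrations, linear interpolation of endpoints. Here, GI50 denotes the concentration required for 50% inhibition of growth. At the TGI there is no net growth.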

Assays:
Test in all cases: DTP human tumour cell line panel, 48 h
SNB-19 CNS = tested on: SNB-19 CNS
NCI/ADR-RES ovarian = tested on: NCI/ADR-RES ovarian
SK-MEL-28 melanoma = tested on: SK-MEL-28 melanoma
SNB-75 CNS = tested on: SNB-75 CNS
EKVX NSCLC = tested on: EKVX NSCLC
SN12C renal = tested on: SN12C renal
HT29 colon = tested on: HT29 colon
IGROV1 ovarian = tested on: IGROV1 ovarian
TK-10 renal = tested on: TK-10 renal
OVCAR-3 ovarian = tested on: OVCAR-3 ovarian
SK-MEL-2 melanoma = tested on: SK-MEL-2 melanoma
OVCAR-5 ovarian = tested on: OVCAR-5 ovarian
ACHN renal = tested on: ACHN renal
BT-549 breast = tested on: BT-549 breast
MCF7 breast = tested on: MCF7 breast
LOX IMVI melanoma = tested on: LOX IMVI melanoma
NCI-H226 lung = tested on: NCI-H226 lung
HOP-92 NSCLC = tested on: HOP-92 NSCLC
OVCAR-4 ovarian = tested on: OVCAR-4 ovarian
COLO 205 colon = tested on: COLO 205 colon
HCC-2998 colon = tested on: HCC-2998 colon
U251 CNS = tested on: U251 CNS
MOLT-4 leukemia = tested on: MOLT-4 leukemia
UO-31 renal = tested on: UO-31 renal
SF-539 CNS = tested on: SF-539 CNS
CCRF-CEM leukemia = tested on: CCRF-CEM leukemia
MDA-MB-435 = tested on: MDA-MB-435
SR leukemia = tested on: SR leukemia
K-562 leukemia = tested on: K-562 leukemia
OVCAR-8 ovarian = tested on: OVCAR-8 ovarian
CAKI-1 renal = tested on: CAKI-1 renal
HCT-116 colon = tested on: HCT-116 colon
SW-620 colon = tested on: SW-620 colon
UACC-257 melanoma = tested on: UACC-257 melanoma
SK-OV-3 ovarian = tested on: SK-OV-3 ovarian
M14 melanoma = tested on: M14 melanoma
SK-MEL-5 melanoma = tested on: SK-MEL-5 melanoma
DU-145 prostate = tested on: DU-145 prostate
SF-295 CNS = tested on: SF-295 CNS
PC-3 prostate = tested on: PC-3 prostate
A549 NSCLC = tested on: A549 NSCLC
MDA-MB-231 breast = tested on: MDA-MB-231 breast
HCT-15 colon = tested on: HCT-15 colon
HS 578T breast = tested on: HS 578T breast
SF-268 CNS = tested on: SF-268 CNS
786-0 renal = tested on: 786-0 renal
UACC-62 melanoma = tested on: UACC-62 melanoma
NCI-H522 lung = tested on: NCI-H522 lung
A498 renal = tested on: A498 renal
T-47D breast = tested on: T-47D breast
KM12 colon = tested on: KM12 colon
NCI-H460 lung = tested on: NCI-H460 lung
RPMI-8226 leukemia = tested on: RPMI-8226 leukemia
HL-60(TB) leukemia = tested on: HL-60(TB) leukemia
NCI-H23 lung = tested on: NCI-H23 lung
RXF 393 renal = tested on: RXF 393 renal
HOP-62 NSCLC = tested on: HOP-62 NSCLC

Which GI50 (SNB-19 CNS) does the source give for COc1cc(OC)cc(C2C(C#N)=C(N)Oc3c2ccc2ccc(O)cc32)c1 (stereo not given) here?
Its GI50 is < 0.01 µM.

And the TGI (SNB-19 CNS)?
Its TGI is 11.6 µM.

What about the GI50 (NCI/ADR-RES ovarian) of the same molecule?
Its GI50 is < 0.01 µM.

And the GI50 (SK-MEL-28 melanoma)?
Its GI50 is 2.27 µM.

And the TGI (SK-MEL-28 melanoma)?
The TGI was 9.97 µM.

And the GI50 (SNB-75 CNS)?
The GI50 was < 0.01 µM.

What about the TGI (SNB-75 CNS) of the same molecule?
Its TGI is 6.54 µM.

What about the GI50 (EKVX NSCLC) of the same molecule?
The GI50 was < 0.01 µM.

What about the TGI (EKVX NSCLC) of the same molecule?
Its TGI is 6.66 µM.

What about the GI50 (SN12C renal) of the same molecule?
Its GI50 is < 0.01 µM.

What about the TGI (SN12C renal) of the same molecule?
Its TGI is 5.89 µM.

And the GI50 (HT29 colon)?
The GI50 was 0.088 µM.

What about the TGI (HT29 colon) of the same molecule?
The TGI was 5.83 µM.

What about the GI50 (IGROV1 ovarian) of the same molecule?
Its GI50 is < 0.01 µM.

And the TGI (IGROV1 ovarian)?
Its TGI is 6.61 µM.

And the GI50 (TK-10 renal)?
Its GI50 is 3.36 µM.

And the TGI (TK-10 renal)?
Its TGI is 19.6 µM.

What about the GI50 (OVCAR-3 ovarian) of the same molecule?
The GI50 was < 0.01 µM.

And the TGI (OVCAR-3 ovarian)?
Its TGI is < 0.01 µM.

What about the GI50 (SK-MEL-2 melanoma) of the same molecule?
The GI50 was 0.587 µM.

And the TGI (SK-MEL-2 melanoma)?
Its TGI is 7.37 µM.

What about the GI50 (OVCAR-5 ovarian) of the same molecule?
The GI50 was 0.0521 µM.

And the TGI (OVCAR-5 ovarian)?
Its TGI is 12 µM.

And the GI50 (ACHN renal)?
Its GI50 is < 0.01 µM.

And the TGI (ACHN renal)?
The TGI was 6.58 µM.

And the GI50 (BT-549 breast)?
Its GI50 is < 0.01 µM.

And the TGI (BT-549 breast)?
Its TGI is 11.5 µM.

What about the GI50 (MCF7 breast) of the same molecule?
Its GI50 is < 0.01 µM.

What about the TGI (MCF7 breast) of the same molecule?
The TGI was 11.3 µM.

And the GI50 (LOX IMVI melanoma)?
The GI50 was < 0.01 µM.

And the TGI (LOX IMVI melanoma)?
The TGI was 1.63 µM.

And the GI50 (NCI-H226 lung)?
The GI50 was < 0.01 µM.

What about the GI50 (HOP-92 NSCLC) of the same molecule?
Its GI50 is < 0.01 µM.

What about the TGI (HOP-92 NSCLC) of the same molecule?
Its TGI is 2.95 µM.

What about the TGI (OVCAR-4 ovarian) of the same molecule?
The TGI was 15.6 µM.

What about the GI50 (COLO 205 colon) of the same molecule?
Its GI50 is 0.155 µM.

What about the TGI (COLO 205 colon) of the same molecule?
The TGI was 1.03 µM.

And the GI50 (HCC-2998 colon)?
Its GI50 is < 0.0166 µM.

And the TGI (HCC-2998 colon)?
The TGI was 0.53 µM.

What about the GI50 (U251 CNS) of the same molecule?
Its GI50 is < 0.01 µM.

And the TGI (U251 CNS)?
The TGI was 1.89 µM.

What about the GI50 (MOLT-4 leukemia) of the same molecule?
Its GI50 is < 0.01 µM.

And the TGI (MOLT-4 leukemia)?
The TGI was 12.8 µM.

And the GI50 (UO-31 renal)?
Its GI50 is < 0.0112 µM.

And the TGI (UO-31 renal)?
The TGI was 6.62 µM.

And the GI50 (SF-539 CNS)?
Its GI50 is < 0.01 µM.

And the TGI (SF-539 CNS)?
Its TGI is < 0.01 µM.

And the GI50 (CCRF-CEM leukemia)?
Its GI50 is < 0.01 µM.

And the TGI (CCRF-CEM leukemia)?
The TGI was 14 µM.

What about the GI50 (MDA-MB-435) of the same molecule?
The GI50 was < 0.01 µM.

What about the TGI (MDA-MB-435) of the same molecule?
Its TGI is < 0.01 µM.

And the GI50 (SR leukemia)?
Its GI50 is < 0.01 µM.

What about the TGI (SR leukemia) of the same molecule?
Its TGI is 27.1 µM.

What about the GI50 (K-562 leukemia) of the same molecule?
The GI50 was < 0.01 µM.

What about the TGI (K-562 leukemia) of the same molecule?
The TGI was > 31.7 µM.

And the GI50 (OVCAR-8 ovarian)?
The GI50 was < 0.01 µM.

What about the TGI (OVCAR-8 ovarian) of the same molecule?
The TGI was 8.29 µM.

And the GI50 (CAKI-1 renal)?
Its GI50 is < 0.01 µM.

And the TGI (CAKI-1 renal)?
Its TGI is 6.08 µM.

And the GI50 (HCT-116 colon)?
Its GI50 is < 0.01 µM.

And the TGI (HCT-116 colon)?
The TGI was 3.88 µM.

What about the GI50 (SW-620 colon) of the same molecule?
The GI50 was < 0.01 µM.

And the TGI (SW-620 colon)?
The TGI was 14.4 µM.

And the GI50 (UACC-257 melanoma)?
Its GI50 is 2.38 µM.

And the TGI (UACC-257 melanoma)?
The TGI was 32.5 µM.

What about the GI50 (SK-OV-3 ovarian) of the same molecule?
The GI50 was < 0.01 µM.

What about the TGI (SK-OV-3 ovarian) of the same molecule?
Its TGI is 11.4 µM.

What about the GI50 (M14 melanoma) of the same molecule?
The GI50 was < 0.01 µM.

And the TGI (M14 melanoma)?
Its TGI is 5.25 µM.

What about the GI50 (SK-MEL-5 melanoma) of the same molecule?
Its GI50 is < 0.01 µM.

What about the TGI (SK-MEL-5 melanoma) of the same molecule?
The TGI was < 0.01 µM.

What about the GI50 (DU-145 prostate) of the same molecule?
The GI50 was < 0.01 µM.

What about the TGI (DU-145 prostate) of the same molecule?
Its TGI is 3.84 µM.

What about the GI50 (SF-295 CNS) of the same molecule?
Its GI50 is < 0.01 µM.

And the TGI (SF-295 CNS)?
The TGI was 2.67 µM.

And the GI50 (PC-3 prostate)?
Its GI50 is < 0.01 µM.

What about the TGI (PC-3 prostate) of the same molecule?
The TGI was 13.9 µM.

And the GI50 (A549 NSCLC)?
Its GI50 is < 0.01 µM.

What about the TGI (A549 NSCLC) of the same molecule?
The TGI was 9.97 µM.

What about the GI50 (MDA-MB-231 breast) of the same molecule?
Its GI50 is < 0.01 µM.

And the TGI (MDA-MB-231 breast)?
The TGI was 5.14 µM.

What about the GI50 (HCT-15 colon) of the same molecule?
Its GI50 is < 0.01 µM.

And the TGI (HCT-15 colon)?
Its TGI is 1.93 µM.

What about the GI50 (HS 578T breast) of the same molecule?
The GI50 was < 0.01 µM.

What about the TGI (HS 578T breast) of the same molecule?
The TGI was 9.95 µM.

And the GI50 (SF-268 CNS)?
The GI50 was < 0.01 µM.

And the TGI (SF-268 CNS)?
The TGI was 6.87 µM.

What about the GI50 (786-0 renal) of the same molecule?
The GI50 was < 0.0125 µM.

And the TGI (786-0 renal)?
Its TGI is 9.23 µM.

What about the GI50 (UACC-62 melanoma) of the same molecule?
Its GI50 is 1.41 µM.

And the TGI (UACC-62 melanoma)?
The TGI was 4.42 µM.

And the GI50 (NCI-H522 lung)?
The GI50 was < 0.01 µM.

And the GI50 (A498 renal)?
The GI50 was < 0.01 µM.

What about the TGI (A498 renal) of the same molecule?
The TGI was 2.64 µM.

And the GI50 (T-47D breast)?
The GI50 was 2.29 µM.

And the TGI (T-47D breast)?
The TGI was 22.8 µM.

What about the GI50 (KM12 colon) of the same molecule?
The GI50 was < 0.01 µM.

What about the TGI (KM12 colon) of the same molecule?
The TGI was 1.34 µM.

And the GI50 (NCI-H460 lung)?
The GI50 was < 0.01 µM.

And the TGI (NCI-H460 lung)?
Its TGI is 1.13 µM.

And the GI50 (RPMI-8226 leukemia)?
The GI50 was < 0.01 µM.

And the TGI (RPMI-8226 leukemia)?
The TGI was 3.28 µM.

What about the GI50 (HL-60(TB) leukemia) of the same molecule?
Its GI50 is < 0.01 µM.

What about the TGI (HL-60(TB) leukemia) of the same molecule?
Its TGI is < 0.01 µM.

And the GI50 (NCI-H23 lung)?
The GI50 was < 0.01 µM.

And the TGI (NCI-H23 lung)?
Its TGI is 4.74 µM.

And the GI50 (RXF 393 renal)?
Its GI50 is < 0.01 µM.

What about the TGI (RXF 393 renal) of the same molecule?
Its TGI is 4.49 µM.

And the GI50 (HOP-62 NSCLC)?
The GI50 was < 0.01 µM.

What about the TGI (HOP-62 NSCLC) of the same molecule?
Its TGI is 5.75 µM.
